Experimental data: PMC2736342 (Biochemistry, 2009)
Read-outs that look alike come from different tables or passages of the source. Ends that are not written are not given here. Peptide text beside a SMILES is read from it. * marks the point of attachment. Biotin = O=C1N[C@H]2[C@H](CS[C@H]2CCCCC(=O)*)N1

Experiments:
[1] = target: WT Gαi GDP (Rattus norvegicus, UniProt P10824, INS119HHHHHH); test: SPR binding to immobilized peptide, wild-type GDP; conditions: pH 7.4
[2] = target: I56C/Q333C Gαi GDP (Rattus norvegicus, UniProt P10824, I56C/INS119HHHHHH/Q333C); test: SPR binding to immobilized peptide, I56C/Q333C GDP; conditions: pH 7.4
[3] = target: D328R Gαi GDP (Rattus norvegicus, UniProt P10824, D328R/INS119HHHHHH); test: SPR binding to immobilized peptide, D328R GDP; conditions: pH 7.4
[4] = target: WT Gαi GDP •AlF4^− (Rattus norvegicus, UniProt P10824, INS119HHHHHH); test: SPR binding to immobilized peptide, wild-type GDP-AlF4^−; conditions: pH 7.4
[5] = target: I56C/Q333C Gαi GDP•AlF4^− (Rattus norvegicus, UniProt P10824, I56C/INS119HHHHHH/Q333C); test: SPR binding to immobilized peptide, I56C/Q333C GDP-AlF4^−; conditions: pH 7.4
[6] = target: D328R Gαi GDP•AlF4^− (Rattus norvegicus, UniProt P10824, D328R/INS119HHHHHH); test: SPR binding to immobilized peptide, D328R GDP-AlF4^−; conditions: pH 7.4
[7] = target: T1, wild-type Gαi1 subunit (rat, UniProt P10824 2-354); test: SPR
[8] = target: T2, D328R Gαi1 subunit (rat, UniProt P10824 2-354, D328R); test: SPR
[9] = target: T1, wild-type Gαi1 subunit; test: SPR; remark: listed apart in the source
[10] = target: T2, D328R Gαi1 subunit; test: SPR; remark: listed apart in the source

With `CSCC[C@H](NC(=O)[C@H](CC(C)C)NC(=O)[C@H](Cc1ccccc1)NC(=O)[C@H](CC(=O)O)NC(=O)[C@H](Cc1ccc(O)cc1)NC(=O)[C@H](Cc1c[nH]c2ccccc12)NC(=O)[C@@H](NC(=O)[C@@H](NC(=O)[C@H](CCCNC(=N)N)NC(=O)[C@@H](N)CO)C(C)C)[C@@H](C)O)C(=O)N[C@@H](CCC(=O)O)C(=O)N[C@@H](CC(=O)O)C(=O)N[C@H](C(=O)N[C@@H](CCCCN)C(=O)N[C@@H](CO)C(=O)N[C@@H](CCCNC(=N)N)C(=O)O)[C@@H](C)O` [KB-752] (H-SRVTWYDFLMEDTKSR-OH) the koff [1] was 0.06 ± 0.01 s⁻¹, the kon [1] was 21100 M⁻¹ s⁻¹ and the koff [2] was 0.22 ± 0.03 s⁻¹. It also gave a kon [2] of 7750 M⁻¹ s⁻¹, a koff [3] of 0.01 ± 0.001 s⁻¹ and a kon [3] of 8560 M⁻¹ s⁻¹.

Molecule `CC[C@H](C)[C@H](NC(=O)CNC(=O)[C@H](Cc1c[nH]cn1)NC(=O)[C@H](Cc1ccc(O)cc1)NC(=O)[C@H](Cc1ccc(O)cc1)NC(=O)CNC(=O)[C@H](CCCNC(=N)N)NC(=O)[C@H](CO)NC(=O)[C@@H](N)CO)C(=O)N[C@@H](Cc1c[nH]c2ccccc12)C(=O)N[C@H](C(=O)NCC(=O)N[C@@H](CCC(=O)O)C(=O)N[C@@H](CCC(=O)O)C(=O)NCC(=O)N[C@@H](CCCNC(=N)N)C(=O)N[C@@H](CC(C)C)C(=O)N[C@@H](CO)C(=O)N[C@@H](CCCNC(=N)N)C(=O)O)C(C)C` [KB-1753] (H-SSRGYYHGIWVGEEGRLSR-OH) has a koff [4] of 0.025 ± 0.001 s⁻¹, a kon [4] of 22900 M⁻¹ s⁻¹ and a koff [5] of 0.006 ± 0.0008 s⁻¹. The kon [5] was 16800 M⁻¹ s⁻¹, the koff [6] was 0.003 ± 0.0004 s⁻¹ and the kon [6] was 8810 M⁻¹ s⁻¹.

B1: peptide KB-752 (peptide)
peptide: Biotin-SRVTWYDFLMEDTKSR
For B1, the Kd [7] was 2840 ± 810 nM and the Kd [8] was 1280 ± 20 nM.

B2: peptide KB-1753 (peptide)
peptide: Biotin-SSRGYYHGIWVGEEGRLSR
Work on B2 yielded a Kd [9] of 1100 ± 100 nM and a Kd [10] of 260 ± 40 nM.
